For this assay, the target named is mouse TRPM3α2 (mTRPM3) ion channel (Mus musculus (Mouse), UniProt J9SQF3). The assay can be described thus: TRPM3 ion channel driven Ca2+ uptake, Fluo-4 AM assay, mTRPM3alpha2 overexpressing flip-in HEK293 cells stimulated with pregnenolone sulfate. The class given is cell-based. Here is the method:
Part B Monitoring the TRPM3 Ion Channel Driven Ca^2+ Uptake.
In order to monitor the inhibition of the mouse TRPM3α2 (mTRPM3) ion channel by the compounds of the invention, a cellular system making use of an mTRPM3alpha2 or hTRPM3 overexpressing cell line (flip-in HEK293) was used. The TRPM3 channel was stimulated/opened with Pregnenolone sulfate (PS) (50 μM) which results in Ca^2+ influx.
For mTRPM3, the intracellular Ca^2+ was measured with a Calcium responsive dye. Fluor-4 AM ester (Invitrogen). Cells were cultured until a confluence of 80-90%, washed with Versene (Invitrogen) and detached from the surface by a short incubation with 0.05% Trypsin (Invitrogen). The trypsination process was stopped by the addition of complete cell culture medium (DMEM, glutamax, 10% FCS,NEAA,Pen-Strep). Cells were collected and resuspended in Krebs buffer without Calcium at RT.
Prior the cell seeding (±2000 cells/well into a black, 384 well plate (Greiner)) the diluted compound was added in the assay plate, together with the PS dissolved in Krebs buffer containing Calcium. […] Directly after cell addition the plates were read on an Envision fluorescence reader (Perkin Elmer) by an Excitation of 485 nm and emission at 535 nm.
Channel inhibition was calculated compared to a non-PS stimulated control versus a condition stimulated with PS (50 μM) with vehicle. The ability of the compounds of the invention to inhibit this activity was determined as: Percentage inhibition=[1-((RFU determined for sample with test compound present—RFU determined for sample with positive control inhibitor) divided by (RFU determined in the presence of vehicle—RFU determined for sample with positive control inhibitor))]*100.

Setting [1] is: PS (50 μM) stimulated, cpds. 667-751.
[2] abbreviates: PS (50 μM) stimulated, cpd 001-199.
The mark [3] stands for this setting: PS (50 μM) stimulated, cpds. 500-599.
The mark [4] stands for this setting: PS (50 μM) stimulated, cpds. 400-499.

Structures are written as SMILES.

Sequence of mouse TRPM3α2 (mTRPM3) ion channel (J9SQF3 other isoform, or with tags, fused parts or gaps): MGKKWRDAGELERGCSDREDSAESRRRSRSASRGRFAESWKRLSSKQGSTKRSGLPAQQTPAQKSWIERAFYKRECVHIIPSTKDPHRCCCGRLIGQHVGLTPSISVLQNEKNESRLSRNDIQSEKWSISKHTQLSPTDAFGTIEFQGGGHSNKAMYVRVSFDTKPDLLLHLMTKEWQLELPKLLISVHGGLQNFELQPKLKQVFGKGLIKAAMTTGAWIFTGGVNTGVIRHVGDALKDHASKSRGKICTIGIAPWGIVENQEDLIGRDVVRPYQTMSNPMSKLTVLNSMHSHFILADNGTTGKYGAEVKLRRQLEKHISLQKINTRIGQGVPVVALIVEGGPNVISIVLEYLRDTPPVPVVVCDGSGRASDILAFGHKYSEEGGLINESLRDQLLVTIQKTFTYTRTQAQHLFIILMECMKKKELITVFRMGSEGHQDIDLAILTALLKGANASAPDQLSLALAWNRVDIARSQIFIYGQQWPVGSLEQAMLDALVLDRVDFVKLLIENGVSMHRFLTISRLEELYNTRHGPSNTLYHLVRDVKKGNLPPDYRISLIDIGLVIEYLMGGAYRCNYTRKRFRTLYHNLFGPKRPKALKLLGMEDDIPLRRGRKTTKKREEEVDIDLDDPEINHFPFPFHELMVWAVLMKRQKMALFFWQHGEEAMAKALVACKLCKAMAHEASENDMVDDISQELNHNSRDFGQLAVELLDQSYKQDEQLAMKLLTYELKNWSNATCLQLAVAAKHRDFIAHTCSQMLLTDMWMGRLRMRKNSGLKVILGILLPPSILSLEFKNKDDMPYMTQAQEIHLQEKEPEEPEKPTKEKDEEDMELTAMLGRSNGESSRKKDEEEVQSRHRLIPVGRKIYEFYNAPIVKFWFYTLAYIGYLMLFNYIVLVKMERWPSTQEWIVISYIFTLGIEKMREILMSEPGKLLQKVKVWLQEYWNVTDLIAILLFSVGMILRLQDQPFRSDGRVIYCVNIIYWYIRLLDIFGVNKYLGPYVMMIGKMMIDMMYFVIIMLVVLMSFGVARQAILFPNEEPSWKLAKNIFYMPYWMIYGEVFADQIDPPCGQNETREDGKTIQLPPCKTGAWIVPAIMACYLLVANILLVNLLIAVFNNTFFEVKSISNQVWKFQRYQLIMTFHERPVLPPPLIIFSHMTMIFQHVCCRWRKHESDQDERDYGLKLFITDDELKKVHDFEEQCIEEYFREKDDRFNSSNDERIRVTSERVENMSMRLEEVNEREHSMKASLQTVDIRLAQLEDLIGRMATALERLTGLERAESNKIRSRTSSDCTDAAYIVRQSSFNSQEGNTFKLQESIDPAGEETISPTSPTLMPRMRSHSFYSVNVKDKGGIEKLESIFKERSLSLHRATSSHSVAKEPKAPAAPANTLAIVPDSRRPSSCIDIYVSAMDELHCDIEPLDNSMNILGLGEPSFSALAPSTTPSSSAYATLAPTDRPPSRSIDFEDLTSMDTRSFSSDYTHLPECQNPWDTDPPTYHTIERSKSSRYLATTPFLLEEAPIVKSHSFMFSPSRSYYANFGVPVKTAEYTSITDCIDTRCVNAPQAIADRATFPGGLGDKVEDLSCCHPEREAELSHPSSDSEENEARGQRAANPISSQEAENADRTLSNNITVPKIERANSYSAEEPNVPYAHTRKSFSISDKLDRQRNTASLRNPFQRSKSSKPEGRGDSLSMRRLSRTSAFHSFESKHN

Regarding `Cc1ncc(COc2ccc3oc(C)c(C(=O)NC4CCOCC4(F)F)c3c2)s1` (single isomer, unassigned) [cpd 724-En 1], the IC50 under setting [1] was below 1 µM. Under setting [2], `Cc1oc2ccc(OCc3ccccn3)cc2c1C(=O)NC1(CO)CCOCC1` [compound 047, N-(4-(hydroxymethyl)tetrahydro-2H-pyran-4-yl)-2-methyl-5-(pyridin-2-ylmethoxy)benzofuran-3-carboxamide] returned an IC50 below 1 µM.

Consider `COc1cccc(COc2ccc3oc(C)c(C(=O)NC4CCNCC4(F)F)c3c2)n1` (single isomer, unassigned) [cpd 570-En 1], for which the IC50 under setting [3] was below 1 µM.

Compound `Cc1nccc(COc2ccc3oc(C)c(C(=O)NC4CCNCC4(F)F)c3c2)n1` (single isomer, unassigned) [cpd 548-En 2] gave an IC50 under setting [3] above 20 µM.

`Cc1oc2ccc(OCc3cnn(C)c3)cc2c1C(=O)N[C@@H](CO)C(N)=O` [compound 698, (S)-N-(1-Amino-3-hydroxy-1-oxopropan-2-yl)-2-methyl-5-((1-methyl-1H-pyrazol-4-yl)methoxy)benzofuran-3-carboxamide] returned an IC50 under setting [1] below 1 µM.

In the case of `Cc1oc2ccc(OCc3cccnc3N3CCC3)cc2c1C(=O)NC1CCNCC1(F)F` (single isomer, unassigned) [cpd 336-En 1], the IC50 (PS 50 μM, cpds 300-399) is below 1 µM. Compound `Cc1ncc(COc2ccc3oc(C)c(C(=O)NC4(C(N)=O)COC4)c3c2)s1` [compound 580, N-(3-carbamoyloxetan-3-yl)-2-methyl-5-((2-methylthiazol-5-yl)methoxy)benzofuran-3-carboxamide] registered an IC50 under setting [3] below 1 µM. The same measure, in the same setting: to `Cc1csc(COc2ccc3oc(C)c(C(=O)NC4CCNCC4(F)F)c3c2)n1` (single isomer, unassigned) [cpd 552-En 2] belongs 1 to 20 µM; to `Cc1oc2ccc(OCc3ncn(C)n3)cc2c1C(=O)NC1CCNCC1(F)F` (single isomer, unassigned) [cpd 542-En 1], 1 to 20 µM. `Cc1oc2ccc(OCc3nccn3C)cc2c1C(=O)NC1COCC1(F)F` (single isomer, unassigned) [cpd 641-En 1]: the IC50 (PS (50 μM) stimulated, cpds. 608-666) was 1 to 20 µM. Under setting [2], `Cc1ncsc1COc1ccc2oc(C)c(C(=O)NC3CNCC(F)(F)C3)c2c1` (single isomer, unassigned) [cpd 115-En 1] displayed an IC50 below 1 µM. With `Cc1oc2ccc(OCc3cccnc3N(C)C)cc2c1C(=O)NC1(CO)CCOCC1` [compound 344, 5-((2-(dimethylamino)pyridin-3-yl)methoxy)-N-(4-(hydroxymethyl)tetrahydro-2H-pyran-4-yl)-2-methylbenzofuran-3-carboxamide], under “PS 50 μM, cpds 300-399”, the IC50 is below 1 µM. The compound `Cc1ncsc1COc1ccc2oc(C)c(C(=O)N[C@@H](CO)C(N)=O)c2c1` [compound 288, (S)-N-(1-amino-3-hydroxy-1-oxopropan-2-yl)-2-methyl-5-((4-methylthiazol-5-yl)methoxy)benzofuran-3-carboxamide] displayed an IC50 (PS 50 μM, cpds 200-299) below 1 µM. In turn, `Cc1oc2ccc(OCc3cccnc3O)cc2c1C(=O)NC1(CO)CC1` [compound 420, N-(1-(hydroxymethyl)cyclopropyl)-5-((2-hydroxypyridin-3-yl)methoxy)-2-methylbenzofuran-3-carboxamide] registered an IC50 under setting [4] below 1 µM. For the compound `Cc1oc2ccc(OCc3ccc(F)cn3)cc2c1C(=O)N[C@H](C(N)=O)[C@@H](C)O` [compound 696, N-((2S,3R)-1-amino-3-hydroxy-1-oxobutan-2-yl)-5-((5-fluoropyridin-2-yl)methoxy)-2-methylbenzofuran-3-carboxamide], the IC50 under setting [1] is below 1 µM.

As to `Cc1oc2ccc(OCc3cncs3)cc2c1C(=O)NC1CCNCC1(F)F` (single isomer, unassigned) [cpd 561-En 1], the half-inhibitory concentration (IC50) under setting [3] was below 1 µM. `Cc1oc2ccc(OCc3cccnc3C(F)(F)F)cc2c1C(=O)NC1(CO)CC1` [compound 200, N-(1-(hydroxymethyl)cyclopropyl)-2-methyl-5-((2-(trifluoromethyl)pyridin-3-yl)methoxy) -benzofuran-3-carboxamide] registered an IC50 (PS 50 μM, cpds 200-299) below 1 µM.

`Cc1oc2ccc(OCc3c[nH]nc3C(F)(F)F)cc2c1C(=O)NC1(CO)CCNC1=O` (single isomer, unassigned) [730-En 1, N-(3-(Hydroxymethyl)-2-oxopyrrolidin-3-yl)-2-methyl-5-((3-(trifluoromethyl)-1H-pyrazol-4-yl)methoxy)benzofuran-3-carboxamide] returned an IC50 under setting [1] below 1 µM. `Cc1oc2ccc(OCc3cccnc3C(F)(F)F)cc2c1C(=O)NC1(C(N)=O)CC1` [compound 475, N-(1-carbamoylcyclopropyl)-2-methyl-5-((2-(trifluoromethyl)pyridin-3-yl)methoxy)benzofuran-3-carboxamide]: the IC50 under setting [4] is below 1 µM. In turn, `Cc1oc2ccc(OCc3cccnc3C(F)(F)F)cc2c1C(=O)NC1(CO)CCOCC1` [compound 072, N-(4-(hydroxymethyl)tetrahydro-2H-pyran-4-yl)-2-methyl-5-((2-(trifluoromethyl)pyridin-3-yl) -methoxy)benzofuran-3-carboxamide] gave an IC50 under setting [2] below 1 µM. Take `COc1ncccc1COc1ccc2oc(C)c(C(=O)NC3(C(N)=O)CC3)c2c1` [compound 480, N-(1-carbamoylcyclopropyl)-5-((2-methoxypyridin-3-yl)methoxy)-2-methylbenzofuran-3-carboxamide]: the IC50 under setting [4] is below 1 µM.

`Cc1ncc(COc2ccc3oc(C)c(C(=O)NC4(CO)CCOC4)c3c2)s1` (single isomer, unassigned) [cpd 533-En 1]: the IC50 under setting [3] was below 1 µM. For the setting “PS 50 μM, cpds 200-299”, `Cc1oc2ccc(OCc3cccnn3)cc2c1C(=O)N[C@@H](CO)C(N)=O` [compound 293, (S)-N-(1-amino-3-hydroxy-1-oxopropan-2-yl)-2-methyl-5-(pyridazin-3-ylmethoxy)benzofuran-3-carboxamide] yielded an IC50 below 1 µM.

For `O=C(NC1CCNCC1(F)F)c1c(C2CC2)oc2ccc(OCc3cccnc3C(F)(F)F)cc12` (single isomer, unassigned) [cpd 313-En 1], the IC50 (PS 50 μM, cpds 300-399) was below 1 µM. On to `Cc1ncsc1COc1ccc2oc(C)c(C(=O)N[C@@H](C(N)=O)C(C)C)c2c1` [compound 273, (R)-N-(1-amino-3-methyl-1-oxobutan-2-yl)-2-methyl-5-((4-methylthiazol-5-yl)methoxy)benzofuran-3-carboxamide], for which the IC50 (PS 50 μM, cpds 200-299) is below 1 µM. `Cc1ncsc1COc1ccc2oc(C)c(C(=O)NC3CNCC3(F)F)c2c1` (single isomer, unassigned) [cpd 106-En 1] showed an IC50 under setting [2] below 1 µM. In turn, `Cc1ncsc1COc1ccc2oc(C)c(C(=O)NC(C)CO)c2c1` (single isomer, unassigned) [cpd 491-En 1] yielded an IC50 under setting [4] below 1 µM.

Take `COc1ncccc1COc1ccc2oc(C)c(C(=O)NC3(CO)CCOCC3)c2c1F` [compound 330, 4-fluoro-N-(4-(hydroxymethyl)tetrahydro-2H-pyran-4-yl)-5-((2-methoxypyridin-3-yl)methoxy)-2-methylbenzofuran-3-carboxamide]: the IC50 (PS 50 μM, cpds 300-399) was below 1 µM. Turning to `Cc1ncsc1COc1cc2c(C(=O)NC3(CO)CCOCC3)c(C)oc2cc1F` [compound 182, 6-fluoro-N-(4-(hydroxymethyl)tetrahydro-2H-pyran-4-yl)-2-methyl-5-((4-methylthiazol-5-yl)methoxy)benzofuran-3-carboxamide], the IC50 under setting [2] was below 1 µM.

As to `Cc1oc2ccc(OCc3cccnc3C(F)(F)F)cc2c1C(=O)NC1(CCO)CCC1` [compound 127, N-(1-(2-hydroxyethyl)cyclobutyl)-2-methyl-5-((2-(trifluoromethyl)pyridin-3-yl)methoxy)benzo-furan-3-carboxamide], the IC50 under setting [2] is below 1 µM.

The compound `Cc1ncsc1COc1ccc2oc(C)c(C(=O)NC3(COC(F)F)CC3)c2c1` [compound 400, N-(1-((difluoromethoxy)methyl)cyclopropyl)-2-methyl-5-((4-methylthiazol-5-yl)methoxy)benzofuran-3-carboxamide] registered an IC50 under setting [4] below 1 µM.

Take `Cc1oc2ccc(OCc3cccnc3C(F)(F)F)cc2c1C(=O)NC1(CO)CCC1` [compound 117, N-(1-(hydroxymethyl)cyclobutyl)-2-methyl-5-((2-(trifluoromethyl)pyridin-3-yl)methoxy)benzofuran-3-carboxamide]: the IC50 under setting [2] was below 1 µM. For the compound `CNC(=O)[C@H](CO)NC(=O)c1c(C)oc2ccc(OCc3cnc(C)s3)cc12` [compound 305, (S)-N-(3-hydroxy-1-(methylamino)-1-oxopropan-2-yl)-2-methyl-5-((2-methylthiazol-5-yl)methoxy)benzofuran-3-carboxamide], where the note is “PS 50 μM, cpds 300-399”, the IC50 is below 1 µM. `Cc1oc2ccc(OCc3cccnc3C(F)(F)F)cc2c1C(=O)NC1CCN(CC(F)(F)F)C1` (single isomer, unassigned) [149-En 1, 2-methyl-N-(1-(2,2,2-trifluoroethyl)pyrrolidin-3-yl)-5-((2-(trifluoromethyl)pyridin-3-yl)methoxy) -benzofuran-3-carboxamide] registered an IC50 under setting [2] below 1 µM.

The record behind these values is patent US12209081B2 (Katholieke Universiteit Leuven, priority 2020, dated 2025).
